Experimental data reported in PMC8692984 (Frontiers in Pharmacology, 2021).

Columns and labels:
α7 nAChRs [1] = biological target: T1, α7 nAChRs (Homo sapiens, UniProt P36544); assay: cell-based; conditions: Choline EC50 ± SEM at TQS-α7 nAChRs
α7 nAChRs [2] = biological target: T1, α7 nAChRs; assay: cell-based; conditions: Choline EC50 ± SEM at PNU120596-α7 nAChRs

T1 sequence (P36544 23-502): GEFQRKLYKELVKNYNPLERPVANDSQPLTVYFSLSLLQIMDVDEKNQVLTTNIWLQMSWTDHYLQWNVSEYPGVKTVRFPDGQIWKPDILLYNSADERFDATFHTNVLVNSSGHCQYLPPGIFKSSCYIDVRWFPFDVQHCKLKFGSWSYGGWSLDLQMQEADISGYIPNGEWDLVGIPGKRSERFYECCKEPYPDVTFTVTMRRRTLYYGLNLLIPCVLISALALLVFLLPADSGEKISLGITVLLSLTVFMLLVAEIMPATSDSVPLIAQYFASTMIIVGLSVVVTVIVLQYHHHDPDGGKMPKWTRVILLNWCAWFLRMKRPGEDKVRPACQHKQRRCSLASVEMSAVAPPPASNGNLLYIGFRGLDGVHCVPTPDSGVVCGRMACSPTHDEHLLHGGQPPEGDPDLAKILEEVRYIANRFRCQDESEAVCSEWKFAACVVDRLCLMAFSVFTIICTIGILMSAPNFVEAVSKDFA

Structure (SMILES): C[N+](C)(C)CCO [Choline, reference compound]
- EC50 (α7 nAChRs [1]): 9 ± 0.9 µM
- EC50 (α7 nAChRs [2]): 3 ± 0.26 µM
